Source: patent publication US20250312365A1, “METHODS FOR INHIBITION OF SQUAMOUS CARCINOMA CELLS USING CERAMIDE MODULATORS” (The Trustees of Indiana University, priority 2024, published 2025)
Entries after “also recorded” stand apart in the source; their conditions may differ.

Assays:
Format in all cases: cell-based, human
OECM1 cells = test: Scratch wound healing migration assay, OECM1; details: compared to sham control
Source text: In vitro assays can be used to evaluate cell migration, including scratch-wound assays and wound healing assays, as in Xu et al., Exp Ther Med. 2023 October; 26(4):460. See also Liang et al., Nat Protoc. 2007;2(2):329-33 and Martinetti & Ronzato, Methods Mol Biol. 2020:2109:225-229. Additionally, the genetic components of cell migration and invasion can be evaluated. For example, MMP-2, ADAM-17 and IL-6 are associated with degradation of the basement membranes and extracellular matrix in OECM-1 cells. See, e.g., Yamada et al., J Cell Mol Med. 2023 May; 27(9):1290-1295.
A scratch wound healing assay was performed according to known methods to assess the effects of PGDHC on the migration of human oral squamous cell carcinoma cells. […] The scratch wound healing assay was validated with a transwell migration assay.
A wound healing migration assay was also conducted to determine the effects of S1P alone or in combination with PGDHC on cell migration. See Yamada et al., J Cell Mol Med. 2023 May; 27(9):1290-1295.

MMP2 = MMP2 mRNA expression in OECM1 cells
Experimental: NF-kB, MMP-2, ADAM-17, and IL6 are implicated in the degradation of the expression of genes involved in the cell basement membrane and extracellular matrix of oral squamous cell carcinoma. Accordingly, the expression of NFkB, MMP2, ADAM17, and IL6 in OECM1 cells following exposure to 0.1 μg/ml PGDHC and 1 μg/ml PGDHC was determined.
Sphingosine-1-phosphate (S1P) sphingolipid plays an essential role in the survival, migration, and degradation of the basement membrane and extracellular matrix of oral squamous cell carcinoma (Yura et al., Cancers (Basel). 2020 August; 12(8): 2062). To determine whether PGDHC can inhibit such properties, the combined effects of PGDHC and S1P on OECM1 gene expression was tested in vitro.

[1] = test system: ceramide and dihydroceramide in OECM1 cells; test: Intracellular ceramide and dihydroceramide by mass-spectrometry in OECM1 cells
Source text: Cellular levels of ceramides and dihydroceramides, and cellular accumulation or increase thereof, can be determined according to known methods, such as mass spectrometry. For example, Scherer et al., J Lipid Res. 2010 July; 51(7): 2001-2011 and Smeden et al., J Lipid Res. 2011 June; 52(6):1211-1221 describe LC/MS/MS methods for determining ceramide levels in cells.
To assess intracellular ceramide levels, the concentration of ceramide and dihydroceramide in OECM1 cells exposed to PGDHC was measured using mass-spectrometry. […] No effect of 0.1 μg/ml of PGDHC on ceramide and dh-ceramide concentrations in OECM1 cells was observed. (FIG. 10C)

[2] = test system: tongue squamous carcinoma cells (SCC4); test: WST-1 proliferation assay in SCC4 cells; details: 0.1 μg/ml and 1 μg/ml
Source text: In specific examples, colorimetric assays can be used to assess cellular viability and proliferation of cell cultures, such as MTT, WST-1, and resazurin assays. See, e.g., Präbst et al., Methods Mol Biol. 2017:1601:1-17.
Various cell lines were exposed to PGDHC, including human gingival squamous carcinoma cells (OECM1), tongue squamous carcinoma cells (SCC4, SCC9), and healthy human gingival epithelial control cells (OBA9) in vitro.

ACER2 = ACER2 mRNA expression in SCC4 cells; details: 0.1 or 1 μg/ml of PGDHC
Experimental: Next, the effect of PGDHC on ceramidase gene expression was determined. OECM1 and SCC4 cells were exposed to 0.1 or 1 μg/ml of PGDHC. The mRNA levels of ceramidases were then measured following PGDHC exposure. PGDHC inhibited the expression of ASAH1 and ACER2 mRNAs in OECM1 (FIG. 8). […] See, e.g., Vijayan et al., J Adv Res. 2023 Dec. 21:S2090-1232(23)00403-4, Doan et al., Oncotarget. 2017 Nov. 7;8(68):112662-112674., Lai et al., Sci Rep. 2021 May 27;11(1):11221, Liu et al., Cancer Sci. 2020 July;111(7):2259-2274., and Liu et al., Front Genet. 2023 Mar. 1:14:1148437.

## phosphoglycerol dihydroceramide [PGDHC]
OECM1 cells; 1 μg/ml
  OECM1 migration, scratch wound healing assay: significantly inhibited
OECM1 cells; in combination with S1P
  S1P-mediated wound-healing migration of OECM1: dramatically inhibited
MMP2; 1 μg/ml
  expression of MMP2 mRNA in OECM1 cells: significantly inhibited
MMP2; in combination with S1P
  MMP2 mRNA levels in OECM1 cells exposed to S1P: a significant effect was not observed
[1]; 0.1 μg/ml
  ceramide and dh-ceramide concentrations in OECM1 cells: No effect
[1]; 1 μg/ml, OECM1 cells
  intracellular concentration of ceramide C20:0, C26:0 and C26:1: significantly elevated
  intracellular concentration of dihydroceramide dhC14:0, dhC16:0, dhC18:0, dhC20:0, dhC20:1, dhC22:1, dhC22:0, dhC24:1, dhC24:0, dhC26:1: significantly elevated
[1]; 1 μg/ml, OECM1 cells, compared to ceramides
  total intracellular concentration of dihydroceramides: significantly elevated; also recorded: led to the accumulation
[1]; OECM1 cells
  accumulation of C16:0 dihydroceramide (dh-C16:0): promotes the accumulation
[2]
  proliferation of SCC4 cells: did not have an observable effect
ACER2
  expression of ACER2 mRNA in SCC4 cells: downregulated
